Laboratory results from patent US20010038822A1, “Melanotropin analogs for potential radiopharmaceuticals for diagnosis and treatment of melanoma” (priority 1998, published 2001).
Read-outs that look alike come from different tables or passages of the source. Positions of bridges follow the written chain, without caps; N, C: chain ends. Non-standard residues stand in square brackets, D forms with d. Residues, ends and D or L forms follow the SMILES beside them.

What was measured:
[1] = tested on: B16F1 murine melanoma cells; format: cell-based
Procedure: Peptide bioactivity was determined by measuring melanin released into cell culture media in an in vitro assay using B16F1 murine melanoma cells (Siegrist, W., 1986). Cells were incubated with various concentrations of peptide and assayed for melanin production by measuring the absorbance of the culture media at 405 nm. Absorbance values were compared to a standard curve obtained using synthetic melanin from Sigma. The standard curve was linear over the experimental range of absorbance values.

[2] = biological target: T1, α-MSH receptor on B16-F1 murine melanoma cells (Mus musculus, UniProt Q01727); experiment: Competitive receptor binding assay with ^125I-[Nle^4, D-Phe^7]-α-MSH
T1 construct: endogenous in cells; host or cells: B16-F1 murine melanoma cells
Procedure: Quantitative receptor binding assays were carried out following a previously described method (Siegrist W., 1988; Sahm, U. G., 1994). Cells were seeded at a density of 5×10^5 cells per well in 24 well tissue culture plates and exposed to varying concentrations of peptides on 0.5 mL of binding media (25 mM HEPES/NaOH pH=7.4, 0.2% BSA, 0.3 mM 1,10-phenanthroline, and approximately 100,000 CPM of ^125I-[Nle^4, D-Phe^7]-α-MSH) (36) at 4° C. for 8 hours. The cells were rinsed with PBS, lysed with 1 M NaOH and counted in a 1275 minigamma gamma counter from LKB Wallac.

[3] = Stabilities of tracer level complexes under challenge (10 mM cysteine / 0.05M phosphate); format: physicochemical
Procedure: ^99mTcO4^− was obtained from a ^99Mo/^99mTc generator produced by Mallinckrodt, Inc. ^188Re was obtained from a ^188W/^188Re generator produced by the University of Missouri research reactor. Radiolabeled peptides were prepared by substitution onto either ^99mTc- or ^188Re-glucoheptonate. For ^188Re complexes, 500 μL of generator eluant was added to a tube containing 50 mg Na-glucoheptonate and 10 mg SnCl2.2H2O dissolved in 200 μL N2-purged 5% disodium-EDTA and heated at 70-80° C. for 0.5 hour. 50 μL of a 1 mg/mL peptide solution was then added, the pH was adjusted to 7-8 with 0.5 N NaOH, and the mixture was allowed to incubate for 90 minutes. at 70-80° C. Syntheses of ^99mTc-labeled peptides differed only in that they were carried out at 25° C. using a 10-fold lower concentration of SnCl2.2H2O.

T1 sequence (Q01727 whole entry): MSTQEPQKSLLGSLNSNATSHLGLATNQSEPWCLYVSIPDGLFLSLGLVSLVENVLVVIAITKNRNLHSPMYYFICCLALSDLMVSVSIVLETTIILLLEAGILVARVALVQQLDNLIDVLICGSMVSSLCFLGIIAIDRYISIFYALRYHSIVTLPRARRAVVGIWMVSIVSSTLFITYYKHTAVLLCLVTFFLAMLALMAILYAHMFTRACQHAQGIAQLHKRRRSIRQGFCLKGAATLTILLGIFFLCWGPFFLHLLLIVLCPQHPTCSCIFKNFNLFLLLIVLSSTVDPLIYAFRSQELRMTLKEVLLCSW

Compound: rhenium complex of NAc-Cys-Cys-Glu-His-D-Phe-Arg-Trp-Cys-Lys-Pro-Val-NH2, APOMSH analog with additional N-terminal Cys [ReCCMSH]
- EC50 ([1]; B16-F1 murine melanoma cells, read-out: EC50 melanin synthesis): 0.035 nM
- ability to stimulate melanin production ([1]; compared with APOMSH): almost identical to APOMSH
- receptor binding affinity higher than that of ReMSH [2]: approximately 25 fold
- Ki ([2]; read-out: receptor binding affinity): 2.9 nM

Compound: CC(=O)N[C@H]1CSSC[C@@H](C(=O)N[C@@H](CCCCN)C(=O)N2CCC[C@H]2C(=O)N[C@H](C(N)=O)C(C)C)NC(=O)[C@H](Cc2c[nH]c3ccccc23)NC(=O)[C@H](CCCNC(=N)N)NC(=O)[C@@H](Cc2ccccc2)NC(=O)[C@H](Cc2c[nH]cn2)NC(=O)[C@H](CCC(=O)O)NC1=O [APOMSH, NA-Cys-Glu-His-D-Phe-Arg-Trp-Cys-Lys-Pro-Val-NH2, reference compound] (Ac-CEH[dF]RWCKPV-NH2; disulfide 1-7)
- EC50 [1]: 0.026 nM
- Ki ([2]; B16-F1 murine melanoma cells, read-out: Ki): 0.68 nM

Compound: CC(=O)N[C@@H](CS)C(=O)N[C@@H](CCC(=O)O)C(=O)N[C@@H](Cc1c[nH]cn1)C(=O)N[C@H](Cc1ccccc1)C(=O)N[C@@H](CCCNC(=N)N)C(=O)N[C@@H](Cc1c[nH]c2ccccc12)C(=O)N[C@@H](CS)C(=O)N[C@@H](CCCCN)C(=O)N1CCC[C@H]1C(=O)N[C@H](C(N)=O)C(C)C (188Re complex, metal not drawn) [^188ReMSH] (Ac-CEH[dF]RWCKPV-NH2)
- Stability of tracer level complex ([3]; 10 mM Cysteine challenge, 4 hrs): 48.9%
- Stability of tracer level complex ([3]; 10 mM Cysteine challenge, 24 hrs): 34.0%
- Stability of tracer level complex ([3]; 0.05M Phosphate challenge, 4 hrs): 90.3%
- Stability of tracer level complex ([3]; 0.05M Phosphate challenge, 24 hrs): 66.4%
- half-life ([3]; 0.05M phosphate with 10 mM cysteine, in competition with 10 mM free cysteine, read-out: t½ (converted)): ~240 min
